Data on 1 molecule can be found in patent publication US20160311812A1, “ADENOSINE A1 AGONISTS AS MEDICAMENTS FOR KIDNEY DISORDERS” (BAYER PHARMA AKTIENGESELLSCHAFT, priority 2013, published 2016).

Marks after values point to notes of the source that are not given here.

The assay relates to glycerol-rat model. The assay can be described thus: Acute renal protection in the glycerol rat (haemolytic-uraemic syndrome). In kind it is in vivo. The settings on record: Group 3: glycerol + 10 mg/kg BW p.o. 8 and 19 h after glycerol injection. The source says: B-2. Acute Renal Protection by Partial A1 Agonists in the Glyeriol Rat (Haemolytic-Uraemic Syndrome; Example for Acute Kidney Disorders)
Glycerol-induced haemolysis in rats is an established animal model for investigating haemolysis-induced, acute renal failure with decrease of the individual nephron filtrate and a rapid increase in substances that are usually eliminated in the urine, such as creatinine and urea. Haemolytic uraemia leads to acute blockade of the tubules through protein deposits (“luminal casts”) and finally to degeneration/necrosis of the tubules. At present there is no known curative therapy, i.e. an antidegenerative therapy of structural kidney injury.
Procedure: male Wistar:WU rats (200-220 g) from Charles River received, after withdrawal of water for 14-18 hours, a single subcutaneous injection of a 50% glycerol solution (8 ml/kg body weight) or 0.9% NaCl (controls). The following groups were investigated:
Group 2 Glycerol+placebo (60 g glycerol+100 g water+969 g PEG-400); n=12
Group 3 Glycerol+10 mg/kg BW partial A1 agonist EXAMPLE 1, p.o. in placebo, 8 and 19 hours after glycerol injection; n=8
At the end of the protocol (=24 hours after glycerol intoxication), the following samples were obtained/measurements were carried out: four-hour urine collection with administration of water (10 ml water/kg body weight, p.o.), and TaqMan analyses of renal injury markers in the renal cortex of the right kidney and histological assessment of the “kidney injury score” in the left kidney, by determining the degree of renal damage from the intensity of “luminal casts+tubular necrosis/degeneration”.

Take `N#Cc1c(N)nc(SCc2csc(-c3ccc(Cl)cc3)n2)c(C#N)c1-c1ccc(OCCO)cc1` [EXAMPLE 1, 2-Amino-6-({[2-(4-chlorophenyl)-1,3-thiazol-4-yl]methyl}sulphanyl)-4-[4-(2-hydroxyethoxy)phenyl]pyridine-3,5-dicarbonitrile]: for the setting “24 h after glycerol”, the P-creatinine is 52 ± 1 µmol/L and the P-urea is given as 11 ± 0.4*^ mmol/l. Moreover, where the note is “TaqMan, renal cortex”, the “Kidney injury marker-1” value was found to be 951 ± 216 rel. expression, the Lipocalin-2 is reported as 204 ± 23 rel. expression and the Osteopontin turned out to be 5575 ± 694 rel. expression. Under “four-hour urine collection”, the U-creatinine was determined as 0.2 ± 0.03 μmol/ml urine/kg BW/h, the U-protein came to 0.02 ± 0.01 μmol/ml urine/kg BW/h, the U-sodium stood at 4 ± 1 μmol/ml urine/kg BW/h and the U-urea came out at 31 ± 6 μmol/ml urine/kg BW/h. Further, for the setting “four-hour urine collection”, the Urine volume was 6.7 ± 0.6 ml/kg BW/h. Moreover, the “Kidney injury score (histo)” value (left kidney, luminal casts + tubular necrosis/degeneration) stood at 1.12.
